Measured values from ChEMBL document CHEMBL3124838, “Discovery of 6-aryl-azabenzimidazoles that inhibit the TBK1/IKK-ε kinases” (Bioorg Med Chem Lett, 2014).

How the values were obtained:
[1] = target: T1, Tyrosine-protein kinase JAK3 (Homo sapiens) (UniProt P52333); experiment: Inhibition of human JAK3 assessed as residual activity at 1 uM relative to control
T1 sequence (whole entry): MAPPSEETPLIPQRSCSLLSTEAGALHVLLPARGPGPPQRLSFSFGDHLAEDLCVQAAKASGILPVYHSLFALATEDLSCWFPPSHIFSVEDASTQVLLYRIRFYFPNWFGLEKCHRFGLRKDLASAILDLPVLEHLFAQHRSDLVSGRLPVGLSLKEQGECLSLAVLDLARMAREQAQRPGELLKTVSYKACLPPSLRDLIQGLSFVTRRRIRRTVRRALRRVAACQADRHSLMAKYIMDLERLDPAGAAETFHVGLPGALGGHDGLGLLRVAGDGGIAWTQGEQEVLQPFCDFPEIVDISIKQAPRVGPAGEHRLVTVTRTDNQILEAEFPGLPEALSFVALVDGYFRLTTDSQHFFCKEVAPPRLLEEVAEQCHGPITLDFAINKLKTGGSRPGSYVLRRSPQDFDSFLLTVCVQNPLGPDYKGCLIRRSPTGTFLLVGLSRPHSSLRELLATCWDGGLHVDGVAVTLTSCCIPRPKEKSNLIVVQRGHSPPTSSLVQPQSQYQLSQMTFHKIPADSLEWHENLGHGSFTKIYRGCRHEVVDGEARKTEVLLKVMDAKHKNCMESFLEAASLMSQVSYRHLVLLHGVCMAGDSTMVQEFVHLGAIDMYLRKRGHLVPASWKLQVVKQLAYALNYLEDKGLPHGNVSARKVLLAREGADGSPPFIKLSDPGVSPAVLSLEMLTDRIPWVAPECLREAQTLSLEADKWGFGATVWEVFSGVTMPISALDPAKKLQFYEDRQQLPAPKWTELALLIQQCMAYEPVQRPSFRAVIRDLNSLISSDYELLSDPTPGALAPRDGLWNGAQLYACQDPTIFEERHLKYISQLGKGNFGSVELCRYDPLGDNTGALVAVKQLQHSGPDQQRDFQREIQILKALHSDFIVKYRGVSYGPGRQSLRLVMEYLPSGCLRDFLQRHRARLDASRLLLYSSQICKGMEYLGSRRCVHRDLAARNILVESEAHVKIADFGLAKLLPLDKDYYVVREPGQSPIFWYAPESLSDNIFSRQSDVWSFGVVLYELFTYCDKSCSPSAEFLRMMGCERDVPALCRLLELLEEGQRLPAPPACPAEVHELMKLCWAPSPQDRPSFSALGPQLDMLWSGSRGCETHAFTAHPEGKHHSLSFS

[2] = target: T2, Ephrin type-B receptor 1 (Homo sapiens) (UniProt P54762); experiment: Inhibition of human EPHB1 assessed as residual activity at 1 uM relative to control
T2 sequence (whole entry): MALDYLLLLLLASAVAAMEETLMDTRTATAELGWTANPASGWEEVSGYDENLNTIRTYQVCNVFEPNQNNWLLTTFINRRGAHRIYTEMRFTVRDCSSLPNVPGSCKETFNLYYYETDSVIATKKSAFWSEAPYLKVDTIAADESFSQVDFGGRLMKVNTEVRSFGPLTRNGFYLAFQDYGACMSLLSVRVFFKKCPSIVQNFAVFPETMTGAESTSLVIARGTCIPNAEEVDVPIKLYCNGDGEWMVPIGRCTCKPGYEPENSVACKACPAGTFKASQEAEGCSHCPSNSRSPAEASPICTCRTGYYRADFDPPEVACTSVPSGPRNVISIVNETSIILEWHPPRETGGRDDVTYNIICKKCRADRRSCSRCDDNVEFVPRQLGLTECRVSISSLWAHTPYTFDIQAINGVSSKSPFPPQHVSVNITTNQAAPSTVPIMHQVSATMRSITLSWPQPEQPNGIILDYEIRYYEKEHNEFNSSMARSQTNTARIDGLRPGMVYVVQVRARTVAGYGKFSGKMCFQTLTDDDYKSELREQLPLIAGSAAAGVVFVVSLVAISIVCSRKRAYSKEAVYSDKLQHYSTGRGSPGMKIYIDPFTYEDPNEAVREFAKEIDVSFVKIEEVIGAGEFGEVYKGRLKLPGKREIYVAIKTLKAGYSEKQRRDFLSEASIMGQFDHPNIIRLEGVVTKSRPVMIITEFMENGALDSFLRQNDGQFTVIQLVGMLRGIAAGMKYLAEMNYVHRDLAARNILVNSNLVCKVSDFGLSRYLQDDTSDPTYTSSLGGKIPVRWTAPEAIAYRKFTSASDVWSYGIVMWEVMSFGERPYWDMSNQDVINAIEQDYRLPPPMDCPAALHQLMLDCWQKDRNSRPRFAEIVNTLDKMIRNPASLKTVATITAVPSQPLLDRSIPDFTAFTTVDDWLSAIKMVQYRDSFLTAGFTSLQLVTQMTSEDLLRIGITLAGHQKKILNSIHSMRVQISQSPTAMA

[3] = target: Tyrosine-protein kinase ABL1 (Homo sapiens) (UniProt P00519); experiment: Inhibition of human ABL assessed as residual activity at 1 uM relative to control
Tyrosine-protein kinase ABL1 (Homo sapiens), sequence (P00519 whole entry): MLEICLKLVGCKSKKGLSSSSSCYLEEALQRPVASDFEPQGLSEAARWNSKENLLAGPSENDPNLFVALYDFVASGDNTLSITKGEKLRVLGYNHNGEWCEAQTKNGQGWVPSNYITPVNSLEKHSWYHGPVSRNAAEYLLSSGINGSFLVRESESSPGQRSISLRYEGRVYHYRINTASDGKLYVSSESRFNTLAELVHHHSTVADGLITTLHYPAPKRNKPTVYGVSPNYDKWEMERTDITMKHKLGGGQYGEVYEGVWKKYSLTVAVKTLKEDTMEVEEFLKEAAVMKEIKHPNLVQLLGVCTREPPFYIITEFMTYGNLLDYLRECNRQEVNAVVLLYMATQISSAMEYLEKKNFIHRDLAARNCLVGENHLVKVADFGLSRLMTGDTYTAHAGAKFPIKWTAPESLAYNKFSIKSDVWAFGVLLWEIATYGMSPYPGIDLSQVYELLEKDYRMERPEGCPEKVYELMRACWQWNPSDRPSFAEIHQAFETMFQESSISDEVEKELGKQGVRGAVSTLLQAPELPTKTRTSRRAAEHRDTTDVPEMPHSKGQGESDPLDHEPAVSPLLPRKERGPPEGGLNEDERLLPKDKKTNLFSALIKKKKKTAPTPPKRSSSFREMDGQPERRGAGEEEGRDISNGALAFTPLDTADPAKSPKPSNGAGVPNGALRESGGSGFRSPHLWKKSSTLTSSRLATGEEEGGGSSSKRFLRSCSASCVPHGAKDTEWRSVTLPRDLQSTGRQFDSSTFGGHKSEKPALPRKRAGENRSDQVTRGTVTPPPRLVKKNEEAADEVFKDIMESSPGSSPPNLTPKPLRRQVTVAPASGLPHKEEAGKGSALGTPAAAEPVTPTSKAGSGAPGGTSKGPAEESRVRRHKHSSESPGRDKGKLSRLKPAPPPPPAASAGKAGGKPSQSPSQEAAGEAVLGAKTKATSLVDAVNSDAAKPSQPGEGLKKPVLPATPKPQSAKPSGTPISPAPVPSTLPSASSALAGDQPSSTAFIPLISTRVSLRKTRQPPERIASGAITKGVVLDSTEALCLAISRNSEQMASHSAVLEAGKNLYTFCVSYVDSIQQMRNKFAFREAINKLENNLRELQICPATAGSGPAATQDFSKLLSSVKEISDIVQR

[4] = target: T3, Serine/threonine-protein kinase Nek2 (Homo sapiens) (UniProt P51955); experiment: Inhibition of human NEK2 assessed as residual activity at 1 uM relative to control
T3 sequence (whole entry): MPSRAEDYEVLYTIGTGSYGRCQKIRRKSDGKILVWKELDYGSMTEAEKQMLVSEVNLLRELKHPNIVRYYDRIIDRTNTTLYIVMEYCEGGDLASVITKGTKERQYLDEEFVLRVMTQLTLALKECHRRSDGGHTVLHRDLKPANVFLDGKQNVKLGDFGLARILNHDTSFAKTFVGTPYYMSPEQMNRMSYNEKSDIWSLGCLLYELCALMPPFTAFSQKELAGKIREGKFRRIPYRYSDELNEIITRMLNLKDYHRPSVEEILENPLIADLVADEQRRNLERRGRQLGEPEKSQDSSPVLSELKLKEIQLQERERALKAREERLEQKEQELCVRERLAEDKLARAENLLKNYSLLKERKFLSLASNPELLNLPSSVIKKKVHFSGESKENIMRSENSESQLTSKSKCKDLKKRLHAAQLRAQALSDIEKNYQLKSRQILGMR

Activity [1] [%]	Activity [2] [%]	Activity [3] [%]	Activity [4] [%]	Compound
96	76	10	97	COc1ccc(-c2nc3cc(-c4csc(C(=O)NCCC(C)C)c4)cnc3[nH]2)cc1
94	74	8	111	COc1ccc(-c2nc3cc(-c4csc(C(=O)NCC(C)(C)C)c4)cnc3[nH]2)cc1
91	72	-2	120	COc1ccc(-c2nc3cc(-c4csc(C(=O)NCC(C)C)c4)cnc3[nH]2)cc1
